# From patent US20180011102A1, “THE PROTEIN KINASE ACTIVITY OF PHOSPHOGLYCERATE KINASE 1 AS A TARGET FOR CANCER TREATMENT AND DIAGNOSIS” (Board of Regents, The University of Texas System, priority 2015, published 2018)
# Key:
# PGK1 S203 = test: Hypoxia-induced PGK1 S203 phosphorylation in U87 cells (streptavidin pull-down / immunoblotting); assay type: cell-based, human
# Description: (§1) FIG. 1B. […] FIG. 1C. […] Arrows indicate representative staining of mitochondrial PGK1. Dashed circles indicate mitochondria. FIG. 1D. […] Tubulin was used as a cytosolic protein marker. FIG. 1E. […] Mitochondria fractions and total cell lysates were prepared. FIG. 1F. […] Mitochondria fractions and total cell lysates were prepared. FIG. 1G. […] FIG. 1H. […] FIG. 1I. […] Mitochondrial fractions and total cell lysates were prepared.
# FIGS. 11A-J. ERK1/2-mediated PGK1 S203 Phosphorylation Is Required for Mitochondrial Translocation of PGK1. Immunofluorescence, immunoprecipitation, and immunoblotting analyses were performed with the indicated antibodies. FIG. 11A. U87 cells stimulated with or without hypoxia for 6 h were stained with the indicated antibody, MitoTracker, and DAPI. FIG. 11B. […] FIG. 11C. U87 cells were stably transfected with or without vectors expressing HA-MEK1 Q56P with the indicated Flag-ERK2 proteins. Total cell lysates were prepared. FIG. 11D. […] FIG. 11E. Anti-PGK1 pS203 antibody was used to deplete the phosphorylated PGK1 from total cell lysates prepared from U87 cells treated with or without hypoxia for 6 h. The images were quantified by scanning densitometry. […] FIG. 11H. […] FIG. 11I. […] Mitochondria fractions and total cell lysates were prepared. FIG. 11J.
# Streptavidin or glutathione agarose beads were incubated with cell lysate (1 mg/ml) or purified protein for 12 h. […]
# ERK1/2 = test: Immunoblotting of hypoxia-induced ERK1/2 phosphorylation/activation in U87 cells; assay type: cell-based, human
# Description: (§2) FIGS. 10A-I. Mitochondrial Translocation of PGK1 is depended on ERK1/2-mediated PGK1 Phosphorylation. FIG. 10A. […] Immunoblotting analyses were performed with the indicated antibodies. FIG. 10B. […] Immunoblotting analyses were performed with the indicated antibodies. FIG. 10C. […] Immunofluorescence analyses were carried out using an anti-PGK1 antibody, MitoTracker, and DAPI. FIG. 10D. U87 cells stably transfected with a vector or Flag-ERK2 K52R were treated with or without hypoxia for 6 h. Mitochondria fractions and total cell lysates were prepared. FIG. 10E. U87 cells were stably transfected with or without vectors expressing HA-MEK1 Q56P with the indicated Flag-ERK2 proteins. Mitochondria fractions and total cell lysates were prepared. Immunoblotting analyses were performed with the indicated antibodies. FIG. 10F. U87 cells were treated with or without hypoxia for 6 h. […] FIG. 10G. Immobilized GST or GST-PGK1 protein was incubated with purified recombinant His-ERK2. Immunoblotting analyses were performed with the indicated antibodies. FIG. 10H. […] Immunoblotting analyses were performed with the indicated antibodies. FIG. 10I. […] Immunoblotting analyses were performed with the indicated antibodies.
# FIGS. 11A-J. ERK1/2-mediated PGK1 S203 Phosphorylation Is Required for Mitochondrial Translocation of PGK1. […] The images were quantified by scanning densitometry. […]
# PGK1 [1] = test: Hypoxia-induced mitochondrial translocation of PGK1 (mitochondrial fractionation, immunoblotting, immunofluorescence); assay type: cell-based, human
# Description: as §1
# FIGS. 9A-E. Hypoxia Induces Mitochondrial Translocation of PGK1. FIG. 9A. Total cell lysate, cytosolic, and mitochondrial fractions were prepared from U87 and U251 cells stimulated with or without hypoxia for 6 h. Immunoblotting analyses were performed with the indicated antibodies. Hypoxia-induced HIF1α expression (left panel) was a control for hypoxic stimulation. WCL: whole-cell lysate; Cyto: cytosol; Mito: mitochondria. WB, Western blot. FIG. 9B. Cytosolic and mitochondrial fractions were prepared from U87 and U251 cells stimulated with hypoxia for 6 h. Immunoblotting analyses of equal percentages of cytosolic and mitochondrial fraction were performed with the indicated antibodies. WCL: whole-cell lysate; Cyto: cytosol; Mito: mitochondria. Immunoblotting analyses were performed with the indicated antibodies. The images were quantified by scanning densitometry. FIG. 9C. U87 cells transfected with HIF1α siRNA or a scrambled siRNA before hypoxia stimulation for 6 h. […]
# EGFR = test: Immunoblotting of hypoxia-induced EGFR phosphorylation in U87 cells; assay type: cell-based, human; conditions: AG1478 100 nM for 30 min before hypoxia 6 h
# PGK1 [2] = test: Determining KM of PGK1 (PGK1-dependent PDHK phosphorylation, Lineweaver-Burke plot); assay type: biochemical, human; conditions: purified recombinant WT PGK1, Sumo-PDHK1, 37° C., means ±SD of three experiments; read-out: Km of ATP for PGK1-dependent PDHK phosphorylation
# Description: FIGS. 14A-P. Mitochondrial PGK1 Phosphorylates PDHK1 at T338. FIG. 14A. […] Immunoblotting analyses were performed with the indicated antibodies. FIG. 14B. U87 cells (left panel) or U87/EGFR (right panel) cells expressing PGK1 shRNA with or without reconstituted expression of WT rPGK1 and the indicated mutants were stimulated with or without hypoxia for 6 h (left panel) or EGF (100 ng/ml) (right panel) for 6 h. These cells were incubated with [1-^14C]-pyruvate for 2 h. [1-^14C]CO2 production rates were measured. FIG. 14C. U87 cells expressing SFB-PDHK1, SFB-PDHK2, SFB-PDHK3, or SFB-PDHK4 were stimulated with or without hypoxia for 6 h. Mitochondrial fractions of these cells were prepared. […] ATP concentrations in mitoplast isolated from U87 or U251 cells treated with or without hypoxia for 6 h were measured. […] The glycolytic activities of bacterially purified WT PGK1, PGK1 T378P, PGK1 S203A, and PGK1 R39/K41A were measured. […]
# Purified recombinant WT PGK1 (0.2 ng) was incubated in 100 μl of reaction buffer (50 mM Tris-HCl [pH 7.5], 600 ng/μl Sumo-PDHK1, 5 mM MgSO4, 1 mM Na3VO4, 1 mM DTT, 1.8 mM phosphorenolpyruvate, 7 units pyruvate kinase, 10 units lactic dehydrogenase, 0.01 mM NADH) with indicated ATP concentration at 37° C. in 96-well plate and were read by multidetection microplate readers (BMG LABTECH, Cary, N.C.) at 339 nm in kinetic mode for 5 min. […]
# U87 cells = test: Cell proliferation assay under hypoxia; assay type: cell-based, human; conditions: PGK1-depleted U87 cells reconstituted with WT PGK1 or PGK1 R39/K41A, DTT 1 mM, hypoxia 4 days
# Description: FIGS. 17A-H. Mitochondrial PGK1-Dependent PDHK1 Phosphorylation Promotes Cell Proliferation and Brain Tumorigenesis. FIGS. 17A-C. Data represent the means ±SD of three independent experiments. FIG. 17A. A total of 2×10^5 U251 cells with or without PGK1 shRNA (left panel) or PDHK1 shRNA (right panel) expression and with or without reconstituted expression of their WT counterparts and the indicated mutants were plated for 4 days under hypoxic conditions. The cells were then collected and counted. FIG. 17B. A total of 2×10^5 endogenous PGK1-depleted U87 cells with reconstituted expression of WT rPGK1 or rPGK1 R39/K41A were plated and treated with or without DTT (1 mM) during hypoxia for 4 days. The cells were then collected and counted. FIG. 17C. Mitochondria fractions and total cell lysates from endogenous PGK1-depleted U87/EGFRvIII cells with reconstituted expression of WT rPGK1 or rPGK1 S203A were prepared. […] The indicated U87/EGFRvIII cells (2×10^5) were plated for 3 days and were counted (right panel). […] The cells were then collected and counted. #p<0.05. […] Tumor volume was calculated using length a and width b: V=ab^2/2. […] Ki67-positive cells were quantified in 10 microscope fields. […] Apoptotic cells were quantified in 10 microscope fields.
# A total of […] cells were plated and counted at 4 days after seeding in DMEM with 10% dialyzed bovine calf serum during hypoxia. […]
# MAPK/APK2 = test: Immunoblotting of hypoxia-induced MAPK/APK2 phosphorylation in U87 cells; assay type: cell-based, human; conditions: pretreated with SB203580 10 μM for 30 min, hypoxia 6 h
# Description: as §2
# PGK1 [3] = conditions: U87/EGFR cells, U0126 20 μM for 30 min, EGF 100 ng/ml 6 h
# Description: EGFR-overxpressed U87 (U87/EGFR) cells pretreated with U0126 (20 μM) for 30 min were stimulated with or without EGF (100 ng/ml) for 6 h. Mitochondria fractions and total cell lysates were prepared.
# U87, U87/EGFR, and U251 human GBM cells, BxPC-3 human pancreatic cancer cells, CHL1 human melanoma cells, and mouse embryo fibroblast (MEF) cells were maintained in Dulbecco's modified Eagle's medium (DMEM) supplemented with 10% dialyzed bovine calf serum without pyruvate (HyClone, Logan, Utah). […] For EGF treatments, cell cultures were made quiescent by growing them to confluence, and the medium was replaced with fresh medium containing 0.5% serum for 1 day. EGF at a final concentration of 100 ng/ml was used for cell stimulation.
# Mitochondrial and cytosolic fractions were isolated using a mitochondria/cytosol fractionation kit from BioVision (Mountain View, Calif.). Mitochondrial proteins and cytosolic proteins were used in immunoblotting analyses.
# PIN1 and PGK1 = conditions: U87 cells, U0126 20 μM for 30 min before hypoxia 6 h
# Description: FIGS. 2A-F and H-I. Immunoblotting and immunoprecipitation analyses were carried out using antibodies against the indicated proteins. FIG. 2A U87 cells were pretreated with or without U0126 (20 μM) for 30 min before hypoxic stimulation for 6 h. […] U87 cells were treated with or without hypoxic stimulation for 6 h. A GST pull-down assay with the indicted GST-proteins was performed. […] U87 cells expressing the indicated PGK1 proteins were treated with or without hypoxic stimulation for 6 h.
# [4] = U87 cells, AG1478 100 nM for 30 min before hypoxia 6 h
structure (smiles),measurement,setting,value
COc1cc2ncnc(Nc3cccc(Cl)c3)c2cc1OC [AG1478],hypoxia-induced phosphorylation of PGK1,PGK1 S203; [4],blocked
same,hypoxia-induced ERK activation,ERK1/2; AG1478 100 nM for 30 min before hypoxia 6 h,blocked
same,hypoxia-induced mitochondrial translocation of PGK1,PGK1 [1]; [4],blocked
same,hypoxia-induced EGFR phosphorylation,EGFR,blocked
"Nc1ncnc2c1ncn2[C@@H]1O[C@H](COP(=O)(O)OP(=O)(O)OP(=O)(O)O)[C@@H](O)[C@H]1O [ATP, adenosine triphosphate]",Km,PGK1 [2],560 ± 53 µM
O[C@@H](CS)[C@@H](O)CS [DTT],hypoxia-induced growth suppression,U87 cells,partially rescued
C[S+]([O-])c1ccc(-c2nc(-c3ccncc3)c(-c3ccc(F)cc3)[nH]2)cc1 (stereo not drawn) [SB203580],hypoxia-induced phosphorylation of MAPK/APK2,MAPK/APK2,blocked
N#CC(=C(/N)Sc1ccccc1N)/C(C#N)=C(\N)Sc1ccccc1N [U0126],hypoxia-induced PGK1 S203 phosphorylation,"PGK1 S203; U87 cells expressing SFB-tagged PGK1, U0126 20 μM or SP600125 25 μM for 30 min before hypoxia 6 h",abolished
same,EGF-induced mitochondrial translocation of PGK1,PGK1 [3],blocked
same,hypoxia-induced phosphorylation of ERK1/2,"ERK1/2; pretreated with U0126 20 μM for 30 min, hypoxia 6 h",blocked
same,hypoxia-induced mitochondrial translocation of PGK1,"PGK1 [1]; U87 and U251 cells, U0126 20 μM for 30 min before hypoxia 6 h",notably reduced
same,hypoxia-increased interaction between endogenous PIN1 and PGK1,PIN1 and PGK1,blocked
